Patent publication US20090042915A1, “PREVENTIVE OR THERAPEUTIC AGENT FOR HERPESVIRUS-RELEATED DISEASE” (ASTELLAS PHARMA INC., priority 2005, published 2009)

Experiments:
[1] = target: T1, HSV-1 helicase-primase complex (Human herpesvirus 1, UniProt P10189+P10236); assay: Helicase-primase inhibitory activity (DNA-dependent ATPase activity, Malachite Green); type: biochemical
T1 construct: made in house; host or cells: Baculovirus expression; The baculoviruses came from Dr. Nigel D. Stow (MRC, UK)
Procedure: Using an Baculoviruses for expressing respective proteins of UL5, UL52 and UL8 which constitute an HSV-1 helicase-primase complex (obtained from Dr. Nigel D. Stow, Medical Research Council, UK), a recombinant HSV-1 helicase-primase complex was prepared by the method described in a report of Crute et al. (J. B. C., 1991, Vol. 266, p. 21252-21256). Detection of DNA-dependent ATPase activity of the HSV-1 helicase-primase complex was carried out in reference to the method described in a report of Crute et al. (J. B. C., 1991, Vol. 266, p. 4484-4488). In brief, 520 ng of the HSV-1 helicase-primase complex was allowed to undergo the reaction at 30° C. for 30 minutes in a reaction liquid containing 20 μg/ml of heat-denatured bovine sperm DNA and 2 mM ATP, and then concentration of phosphoric acid formed through the hydrolysis of ATP into ADP and monophosphate by the activity of ATPase was determined by adding the same volume of Malachite Green reagent (0.03% Malachite Green, 0.1% ammonium molybdate, 4.8% sulfuric acid) and measuring the resulting absorbance at 650 nm. The 50% inhibition concentration (IC50 value) of each compound to be tested for HSV-1 helicase-primase DNA-dependent ATPase was calculated as the concentration which halves the phosphoric acid concentration at the time of not adding the compound.

HSV-1 strain WT-51 = assay: HSV-1 skin infection mouse model (in vivo test); set-up: species or system HR-1 hairless mouse; settings: for Lesion inhibitory ratio (%): oral twice a day for 5 days
Procedure: Using a cutaneous HSV-1 infection mouse model prepared in accordance with the method of H. Machida et al. (Antiviral Res., 1992, 17, 133-143), in vivo activity of the pharmaceutical composition of the present invention was tested. The skin of each HR-1 hairless mouse [female, 7 weeks of age] was scratched lengthwise and breadthwise several times using a needle and a virus suspension (HSV-1 strain WT-51, 1.5×10^4 PFU/15 μl) was dropped to the scarified region for infection, while anesthetized with diethyl ether.
Regarding the compounds to be tested, VCV was used as the polymerase inhibitor and made into a methyl cellulose suspension, the compound of Preparation 2, N-(4-methylphenyl)-N-(2-{[4-(1,3-oxazol-4-yl)phenyl]amino}-2-oxoethyl)tetrahydro-2H-thiopyran-4-carboxamide 1,1-dioxide, which is described later, was used as the helicase-primase inhibitor and made into a methyl cellulose suspension, and they were orally administered at the doses of the following table twice a day for 5 days starting after 3 hours of the infection. The symptom of the skin lesion caused by HSV-1 infection were classified in the following scores for 17 days:
Score 0: no signs of infection.
Score 1: localized, barely perceptible small vesicles.
Score 2: slight vesicle spread.
Score 3: large patches of vesicles formed.
Score 4: zosteriform vesicles.
Score 5: large patches of ulcers formed.
Score 6: zosteriform with severe large ulcers.
Score 7: hind limb paralysis or death.
The AUC value was calculated from each group's mean disease score, and the disease inhibitory rate of the group administered with each test compound to the placebo group was calculated using the AUC.
In the same manner as described in the above, VCV was used as the polymerase inhibitor and the compound of Preparation 27, N-(2,6-dimethylphenyl)-N-(2-{[4-(1,2,4-oxadiazol-3-yl)phenyl]amino}-2-oxoethyl)tetrahydro-2H-thiopyran-4-carboxamide 1,1-dioxide, which is described later, was used as the helicase-primase inhibitor, with the results shown in the following table.

T1 sequence (P10236 whole entry): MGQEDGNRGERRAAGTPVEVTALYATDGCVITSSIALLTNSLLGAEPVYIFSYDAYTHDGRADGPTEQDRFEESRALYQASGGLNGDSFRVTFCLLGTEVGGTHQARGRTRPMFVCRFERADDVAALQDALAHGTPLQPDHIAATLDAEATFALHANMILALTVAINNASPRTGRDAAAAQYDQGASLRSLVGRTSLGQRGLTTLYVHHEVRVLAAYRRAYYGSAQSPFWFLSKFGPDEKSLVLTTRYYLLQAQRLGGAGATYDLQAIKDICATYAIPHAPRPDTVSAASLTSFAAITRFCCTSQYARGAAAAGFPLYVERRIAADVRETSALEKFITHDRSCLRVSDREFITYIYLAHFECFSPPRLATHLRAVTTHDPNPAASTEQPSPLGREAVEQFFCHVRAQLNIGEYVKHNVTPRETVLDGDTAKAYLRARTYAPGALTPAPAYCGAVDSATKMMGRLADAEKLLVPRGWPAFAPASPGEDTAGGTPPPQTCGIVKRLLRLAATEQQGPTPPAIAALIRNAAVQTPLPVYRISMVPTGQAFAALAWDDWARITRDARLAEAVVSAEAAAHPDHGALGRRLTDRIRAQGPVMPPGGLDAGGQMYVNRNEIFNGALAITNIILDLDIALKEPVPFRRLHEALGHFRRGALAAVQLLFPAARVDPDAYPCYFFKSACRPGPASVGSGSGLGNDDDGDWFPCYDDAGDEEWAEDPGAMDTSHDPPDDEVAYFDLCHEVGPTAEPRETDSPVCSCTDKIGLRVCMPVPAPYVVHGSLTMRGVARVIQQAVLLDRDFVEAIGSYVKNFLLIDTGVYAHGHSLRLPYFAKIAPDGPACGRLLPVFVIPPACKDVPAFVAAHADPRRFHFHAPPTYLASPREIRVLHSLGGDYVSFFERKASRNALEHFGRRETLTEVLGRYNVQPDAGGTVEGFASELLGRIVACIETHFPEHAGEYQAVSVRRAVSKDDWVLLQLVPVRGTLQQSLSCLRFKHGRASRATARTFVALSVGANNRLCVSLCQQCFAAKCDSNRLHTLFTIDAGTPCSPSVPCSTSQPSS
T1 sequence (P10192 whole entry, further chain): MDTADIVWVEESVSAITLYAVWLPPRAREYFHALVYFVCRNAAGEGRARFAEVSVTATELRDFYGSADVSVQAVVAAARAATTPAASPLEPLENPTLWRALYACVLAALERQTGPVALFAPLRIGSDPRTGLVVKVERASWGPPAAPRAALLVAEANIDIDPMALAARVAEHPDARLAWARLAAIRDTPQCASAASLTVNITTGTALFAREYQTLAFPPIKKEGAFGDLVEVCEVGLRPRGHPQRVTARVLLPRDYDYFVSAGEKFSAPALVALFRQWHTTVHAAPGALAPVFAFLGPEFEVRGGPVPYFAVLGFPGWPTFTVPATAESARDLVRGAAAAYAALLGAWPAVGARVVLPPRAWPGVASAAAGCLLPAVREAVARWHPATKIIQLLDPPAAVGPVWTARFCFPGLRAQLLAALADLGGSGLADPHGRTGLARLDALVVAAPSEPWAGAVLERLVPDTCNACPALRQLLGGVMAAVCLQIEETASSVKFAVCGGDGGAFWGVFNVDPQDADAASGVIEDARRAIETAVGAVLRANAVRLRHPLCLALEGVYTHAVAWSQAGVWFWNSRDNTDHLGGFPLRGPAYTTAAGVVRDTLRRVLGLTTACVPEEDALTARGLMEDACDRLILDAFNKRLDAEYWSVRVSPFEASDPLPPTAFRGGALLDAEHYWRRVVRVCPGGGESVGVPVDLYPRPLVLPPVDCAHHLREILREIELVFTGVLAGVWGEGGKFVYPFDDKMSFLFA
T1 sequence (P10189 whole entry): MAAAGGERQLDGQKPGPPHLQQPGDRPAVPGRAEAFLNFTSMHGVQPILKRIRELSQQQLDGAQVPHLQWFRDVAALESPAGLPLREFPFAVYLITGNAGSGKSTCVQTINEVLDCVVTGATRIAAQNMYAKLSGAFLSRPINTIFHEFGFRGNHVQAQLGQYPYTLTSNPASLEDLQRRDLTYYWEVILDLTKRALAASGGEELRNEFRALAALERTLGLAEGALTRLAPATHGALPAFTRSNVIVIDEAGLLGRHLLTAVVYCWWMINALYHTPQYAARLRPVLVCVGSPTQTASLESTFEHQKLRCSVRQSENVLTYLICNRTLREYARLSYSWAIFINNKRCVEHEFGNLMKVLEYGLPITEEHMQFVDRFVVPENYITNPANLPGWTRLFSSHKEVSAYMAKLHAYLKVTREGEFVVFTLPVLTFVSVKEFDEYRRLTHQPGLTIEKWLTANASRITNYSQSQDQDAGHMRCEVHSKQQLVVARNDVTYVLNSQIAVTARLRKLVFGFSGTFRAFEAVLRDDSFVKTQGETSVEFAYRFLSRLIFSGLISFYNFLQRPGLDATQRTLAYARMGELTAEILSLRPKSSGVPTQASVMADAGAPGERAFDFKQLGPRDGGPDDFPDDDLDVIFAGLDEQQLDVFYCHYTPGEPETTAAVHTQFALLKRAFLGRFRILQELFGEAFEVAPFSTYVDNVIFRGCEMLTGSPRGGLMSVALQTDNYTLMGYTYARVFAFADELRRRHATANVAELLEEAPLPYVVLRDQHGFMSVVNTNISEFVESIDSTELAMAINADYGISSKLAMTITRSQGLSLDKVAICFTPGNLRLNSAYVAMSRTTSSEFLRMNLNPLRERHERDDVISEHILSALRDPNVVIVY

For `Cc1ccc(N(CC(=O)Nc2ccc(-c3cocn3)cc2)C(=O)C2CCS(=O)(=O)CC2)cc1` [Preparation 2, N-(4-methylphenyl)-N-(2-{[4-(1,3-oxazol-4-yl)phenyl]amino}-2-oxoethyl)tetrahydro-2H-thiopyran-4-carboxamide 1,1-dioxide], the IC50 [1] was 0.084 µM, the “Lesion inhibitory ratio (%)” value (HSV-1 strain WT-51; Table 2, compound of Preparation 2 1 mg/kg, VCV 0 mg/kg, AUC of disease score over 17 days vs placebo) was 38% and the “Lesion inhibitory ratio (%)” value (HSV-1 strain WT-51; Table 2, compound of Preparation 2 3 mg/kg, VCV 0 mg/kg) was 52%. For the same compound, the “Lesion inhibitory ratio (%)” value (HSV-1 strain WT-51; Table 2, concomitant use: VCV 10 mg/kg + compound of Preparation 2 1 mg/kg) was 76%, the “Lesion inhibitory ratio (%)” value (HSV-1 strain WT-51; Table 2, concomitant use: VCV 10 mg/kg + compound of Preparation 2 3 mg/kg) was 83% and the “Lesion inhibitory ratio (%)” value (HSV-1 strain WT-51; Table 2, concomitant use: VCV 30 mg/kg + compound of Preparation 2 1 mg/kg) was 86%. The “Lesion inhibitory ratio (%)” value (HSV-1 strain WT-51; Table 2, concomitant use: VCV 30 mg/kg + compound of Preparation 2 3 mg/kg) was 91%, the “lesion inhibitory activity (in words)” value (HSV-1 strain WT-51; concomitant use group of VCV with the compound of Preparation 2, compared with VCV single administration) was “good lesion inhibitory activity in comparison with the VCV single administration group” and the “inhibition of the lesions (in words)” value (HSV-1 strain WT-51; concomitant use of 30 mg/kg of VCV with 3 mg/kg of the compound of Preparation 2) was “almost completely inhibited the lesions”.
`Cc1cccc(C)c1N(CC(=O)Nc1ccc(-c2ncon2)cc1)C(=O)C1CCS(=O)(=O)CC1` [Preparation 27, N-(2,6-dimethylphenyl)-N-(2-{[4-(1,2,4-oxadiazol-3-yl)phenyl]amino}-2-oxoethyl)tetrahydro-2H-thiopyran-4-carboxamide 1,1-dioxide] was tested, and the IC50 [1] was 0.11 µM, the “Lesion inhibitory ratio (%)” value (HSV-1 strain WT-51; Table 3, compound of Preparation 27 1 mg/kg, VCV 0 mg/kg) was 33% and the “Lesion inhibitory ratio (%)” value (HSV-1 strain WT-51; Table 3, compound of Preparation 27 3 mg/kg, VCV 0 mg/kg) was 68%. For the same compound, the “Lesion inhibitory ratio (%)” value (HSV-1 strain WT-51; Table 3, concomitant use: VCV 10 mg/kg + compound of Preparation 27 1 mg/kg) was 66%, the “Lesion inhibitory ratio (%)” value (HSV-1 strain WT-51; Table 3, concomitant use: VCV 10 mg/kg + compound of Preparation 27 3 mg/kg) was 86% and the “Lesion inhibitory ratio (%)” value (HSV-1 strain WT-51; Table 3, concomitant use: VCV 30 mg/kg + compound of Preparation 27 1 mg/kg) was 88%. The “Lesion inhibitory ratio (%)” value (HSV-1 strain WT-51; Table 3, concomitant use: VCV 30 mg/kg + compound of Preparation 27 3 mg/kg) was 100%, the “lesion inhibitory activity (in words)” value (HSV-1 strain WT-51; concomitant use groups VCV 10 mg/kg + 3 mg/kg, VCV 30 mg/kg + 1 mg/kg, VCV 30 mg/kg + 3 mg/kg of the compound of Preparation 27, compared with VCV single administration) was “good lesion inhibitory activity in comparison with the VCV single administration group” and the “inhibition of the lesions (in words)” value (HSV-1 strain WT-51; concomitant use of 30 mg/kg of VCV with 3 mg/kg of the compound of Preparation 27) was “completely inhibited the lesions”.
In the case of `CC(C)[C@H](N)C(=O)OCCOCn1cnc2c(=O)[nH]c(N)nc21` [VCV, valacyclovir, reference compound], the “Lesion inhibitory ratio (%)” value (HSV-1 strain WT-51; Table 2, VCV 10 mg/kg alone) is reported as 45%, the “Lesion inhibitory ratio (%)” value (HSV-1 strain WT-51; Table 2, VCV 30 mg/kg alone) is reported as 57% and the “Lesion inhibitory ratio (%)” value (HSV-1 strain WT-51; Table 3, VCV 10 mg/kg alone) is reported as 42%. The “Lesion inhibitory ratio (%)” value (HSV-1 strain WT-51; Table 3, VCV 30 mg/kg alone) was 52%.
